Assay results from patent US20220175856A1, “UNRAVELING RECEPTOR-METABOLITE INTERACTIONS IN THE HUMAN MICROBIOME” (The Rockefeller University, priority 2019, published 2022).
Entries after “also recorded” stand apart in the source; their conditions may differ. Read-outs that look alike come from different tables or passages of the source. One block for each compound: values may come before it.

What was measured:
[1] = system: serotonin receptors (HTRs); assay: β-arrestin recruitment GPCR agonist assay (PathHunter), serotonin receptors; assay type: cell-based, human; settings: result in words
HRH4 = HRH4 (Homo sapiens, UniProt Q9H3N8); assay: β-arrestin recruitment GPCR agonist assay (PathHunter), HRH4; assay type: cell-based; settings: result in words
DRD2 = assay: β-arrestin recruitment GPCR agonist assay (PathHunter), DRD2; assay type: cell-based, human; settings: synthetic standard; result in words
Source text: (§1) Individual bacteria from the SIHUMI consortium were fermented under anaerobic conditions in 20 L culture vessels, along with a media control containing no bacteria (FIG. 1). After 10 days, the extracellular metabolites were extracted and the crude mixture was partitioned into metabolite-rich fractions using reversed phased flash chromatography. The pre-fractionation process simplifies each fraction, thereby improving the signal in the primary screen and facilitating the downstream isolation of bioactive compounds. The fraction library was screened for agonist activity against individual GPCRs using a luminescence-based β-arrestin recruitment assay.
(§2) Compound plates were shipped on dry ice to Eurofins DiscoverX and the gperMAX and orphanMAX panels were run on all 80 samples in singleton.

DRD3 = DRD3 (Homo sapiens, UniProt P35462); assay: β-arrestin recruitment GPCR agonist assay (PathHunter), DRD3; assay type: cell-based; settings: synthetic standard; result in words
DRD3, sequence (P35462 whole entry): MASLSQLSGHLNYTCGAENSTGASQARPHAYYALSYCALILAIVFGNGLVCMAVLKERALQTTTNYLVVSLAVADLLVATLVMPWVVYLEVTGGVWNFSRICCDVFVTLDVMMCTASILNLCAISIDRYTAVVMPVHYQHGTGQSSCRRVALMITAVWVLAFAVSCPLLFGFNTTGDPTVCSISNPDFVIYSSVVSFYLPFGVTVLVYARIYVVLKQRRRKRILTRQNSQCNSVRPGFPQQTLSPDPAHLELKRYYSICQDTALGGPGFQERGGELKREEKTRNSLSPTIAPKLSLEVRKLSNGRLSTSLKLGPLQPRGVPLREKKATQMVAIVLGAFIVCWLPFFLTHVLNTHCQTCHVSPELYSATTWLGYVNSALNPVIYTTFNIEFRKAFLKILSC

[2] = molecular target: T1, urotensin 2 receptor (UTR2) (Homo sapiens, UniProt Q9UKP6); assay: β-arrestin recruitment GPCR agonist assay (PathHunter), UTR2; assay type: cell-based; settings: for agonist activity at UTR2: result in words
T1 sequence (Q9UKP6 1-389): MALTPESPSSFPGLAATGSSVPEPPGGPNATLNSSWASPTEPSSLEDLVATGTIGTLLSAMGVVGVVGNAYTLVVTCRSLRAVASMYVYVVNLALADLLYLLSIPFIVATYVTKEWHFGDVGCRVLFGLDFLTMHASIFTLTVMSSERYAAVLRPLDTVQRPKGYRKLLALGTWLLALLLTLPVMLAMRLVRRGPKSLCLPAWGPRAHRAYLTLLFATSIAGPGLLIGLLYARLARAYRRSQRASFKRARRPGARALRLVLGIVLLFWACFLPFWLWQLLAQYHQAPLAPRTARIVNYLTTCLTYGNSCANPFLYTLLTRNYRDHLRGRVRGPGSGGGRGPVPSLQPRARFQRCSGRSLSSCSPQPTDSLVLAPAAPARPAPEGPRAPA

[3] = molecular target: T2, NMU1R (neuromedin receptor 1) (Homo sapiens, UniProt Q9HB89); assay: β-arrestin recruitment GPCR agonist assay (PathHunter), NMU1R; assay type: cell-based; settings: for agonist activity at NMU1R: result in words
T2 sequence (Q9HB89 1-426): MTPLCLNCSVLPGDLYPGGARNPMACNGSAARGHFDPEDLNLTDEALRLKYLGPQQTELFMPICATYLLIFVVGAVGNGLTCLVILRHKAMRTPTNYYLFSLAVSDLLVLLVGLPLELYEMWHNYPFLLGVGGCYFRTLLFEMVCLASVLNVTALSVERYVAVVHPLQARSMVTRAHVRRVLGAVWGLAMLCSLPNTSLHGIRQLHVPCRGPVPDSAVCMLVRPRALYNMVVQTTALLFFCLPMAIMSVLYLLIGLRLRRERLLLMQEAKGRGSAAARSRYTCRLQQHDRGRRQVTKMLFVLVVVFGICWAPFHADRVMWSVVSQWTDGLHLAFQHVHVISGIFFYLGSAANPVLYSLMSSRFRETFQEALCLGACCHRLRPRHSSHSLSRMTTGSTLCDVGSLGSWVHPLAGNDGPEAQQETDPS

[4] = molecular target: brain angiogenesis factor 1 (BAI1) (Homo sapiens, UniProt O14514); assay: β-arrestin recruitment GPCR agonist assay (PathHunter), BAI1; assay type: cell-based
brain angiogenesis factor 1 (BAI1), sequence (O14514 31-1584): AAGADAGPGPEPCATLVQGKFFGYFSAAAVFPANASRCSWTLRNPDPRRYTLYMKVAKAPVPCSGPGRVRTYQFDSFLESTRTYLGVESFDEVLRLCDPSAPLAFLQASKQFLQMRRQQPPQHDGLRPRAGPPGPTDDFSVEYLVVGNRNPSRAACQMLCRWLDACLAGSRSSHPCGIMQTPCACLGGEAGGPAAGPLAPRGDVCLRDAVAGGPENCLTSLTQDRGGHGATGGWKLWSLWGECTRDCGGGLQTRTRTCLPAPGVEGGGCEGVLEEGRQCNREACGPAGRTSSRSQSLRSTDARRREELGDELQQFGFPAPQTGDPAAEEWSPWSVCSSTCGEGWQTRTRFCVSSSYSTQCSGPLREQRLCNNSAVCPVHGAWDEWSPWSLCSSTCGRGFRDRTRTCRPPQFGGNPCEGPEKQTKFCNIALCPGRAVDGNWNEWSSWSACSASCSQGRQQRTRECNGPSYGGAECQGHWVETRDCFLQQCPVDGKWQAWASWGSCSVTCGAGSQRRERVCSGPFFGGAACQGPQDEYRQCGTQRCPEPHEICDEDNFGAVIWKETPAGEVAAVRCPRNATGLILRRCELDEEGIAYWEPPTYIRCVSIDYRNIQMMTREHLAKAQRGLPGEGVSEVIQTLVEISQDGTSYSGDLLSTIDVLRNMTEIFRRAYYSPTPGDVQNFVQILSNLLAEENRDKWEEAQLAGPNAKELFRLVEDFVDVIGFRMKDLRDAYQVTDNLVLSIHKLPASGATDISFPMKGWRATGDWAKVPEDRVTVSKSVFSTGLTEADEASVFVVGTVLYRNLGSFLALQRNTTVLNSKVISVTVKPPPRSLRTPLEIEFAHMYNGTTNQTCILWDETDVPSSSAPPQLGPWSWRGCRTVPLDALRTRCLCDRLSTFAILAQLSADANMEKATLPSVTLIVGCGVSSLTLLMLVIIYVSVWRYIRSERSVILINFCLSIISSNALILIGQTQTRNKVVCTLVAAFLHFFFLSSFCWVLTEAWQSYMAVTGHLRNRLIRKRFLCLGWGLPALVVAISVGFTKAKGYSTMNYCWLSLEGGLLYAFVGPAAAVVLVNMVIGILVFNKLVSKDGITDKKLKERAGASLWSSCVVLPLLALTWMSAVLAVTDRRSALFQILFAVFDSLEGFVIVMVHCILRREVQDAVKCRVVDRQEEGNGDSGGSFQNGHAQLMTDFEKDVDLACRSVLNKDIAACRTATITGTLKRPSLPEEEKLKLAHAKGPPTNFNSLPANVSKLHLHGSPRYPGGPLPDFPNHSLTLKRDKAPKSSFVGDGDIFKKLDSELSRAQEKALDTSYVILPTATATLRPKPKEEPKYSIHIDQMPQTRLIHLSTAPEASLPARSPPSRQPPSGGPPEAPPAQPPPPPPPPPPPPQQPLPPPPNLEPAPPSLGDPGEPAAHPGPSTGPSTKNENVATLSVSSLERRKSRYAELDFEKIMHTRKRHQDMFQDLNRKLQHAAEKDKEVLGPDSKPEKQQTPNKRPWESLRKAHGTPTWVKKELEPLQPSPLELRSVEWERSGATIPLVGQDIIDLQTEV

GPR151 = molecular target: T3, GPR151 (Homo sapiens, UniProt Q8TDV0); assay: β-arrestin recruitment GPCR agonist assay (PathHunter), GPR151; assay type: cell-based; settings: Table 1, GPCR GPR151 (Q8TDV0)
T3 sequence (Q8TDV0 1-419): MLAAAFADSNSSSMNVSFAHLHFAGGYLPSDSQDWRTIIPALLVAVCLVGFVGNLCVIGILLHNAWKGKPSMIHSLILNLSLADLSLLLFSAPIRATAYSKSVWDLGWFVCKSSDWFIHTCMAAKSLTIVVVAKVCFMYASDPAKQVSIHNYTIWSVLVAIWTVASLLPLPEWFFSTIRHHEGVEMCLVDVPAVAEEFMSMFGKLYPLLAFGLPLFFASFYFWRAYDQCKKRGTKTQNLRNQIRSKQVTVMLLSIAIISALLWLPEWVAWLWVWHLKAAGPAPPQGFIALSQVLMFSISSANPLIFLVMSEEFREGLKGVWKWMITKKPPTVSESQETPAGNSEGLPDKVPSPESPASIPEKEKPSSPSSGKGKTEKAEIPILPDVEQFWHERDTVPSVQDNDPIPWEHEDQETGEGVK

[5] = system: histamine receptor (HRH) family; assay: β-arrestin recruitment GPCR agonist assay (PathHunter), histamine receptor family; assay type: cell-based, human; settings: synthetic polyamines; result in words
GPR109B = GPR109B (Homo sapiens, UniProt P49019); assay: cell-based
GPR109B, sequence (P49019 whole entry): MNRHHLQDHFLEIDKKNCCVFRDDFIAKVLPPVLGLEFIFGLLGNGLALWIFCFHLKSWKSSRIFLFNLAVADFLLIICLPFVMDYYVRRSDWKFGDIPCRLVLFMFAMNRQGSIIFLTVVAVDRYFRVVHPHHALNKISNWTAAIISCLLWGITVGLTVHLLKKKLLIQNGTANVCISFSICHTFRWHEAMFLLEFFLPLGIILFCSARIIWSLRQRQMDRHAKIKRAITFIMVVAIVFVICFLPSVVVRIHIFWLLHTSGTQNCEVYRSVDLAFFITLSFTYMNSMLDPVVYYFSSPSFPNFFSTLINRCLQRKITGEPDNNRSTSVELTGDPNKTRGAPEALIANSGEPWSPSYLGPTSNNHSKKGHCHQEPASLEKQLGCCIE
Source text: as §1, §2

[6] = Table 1, GPCR UTR2 (Q9UKP6), read-out: EC50 (μM), UTR2

SMILES: NCCc1c[nH]c2ccccc12 [tryptamine]
- agonism of serotonin receptors (HTRs) [1]: can modulate serotonin receptors

SMILES: NCCCCCN [cadaverine]
- agonism / activation of HRH4 (HRH4): major metabolite responsible for HRH4 activation; also recorded: HRH4 agonist
- agonism / activation of HRH4 (HRH4; listed as Cadaverine): HRH4 agonist

SMILES: CC(C)CCCCCCCCCCCC(=O)O [iC15:0, reference compound]
- agonist activity at UTR2 [2]: minimal agonist activity
- agonist activity at NMU1R [3]: minimal agonist activity

SMILES: NCCCCN [putrescine, reference compound]
- agonism / activation of HRH4 (HRH4): selectively agonized HRH4 but to a lesser extent than cadaverine

SMILES: CCCCCCC1CC1CCCCCCCC(=O)O (stereo not drawn) [9,10-methylenehexadecanoic acid]
- EC50 [2, 6]: 52 µM
- EC50 ([4]; Table 1, GPCR BAI1 (O14514)): 3.2 µM
- agonism of BAI1 ([4]; result in words): agonized BAIL; also recorded: BAIl-active

SMILES: NCCCCNCCCN [spermidine]
- HRH activity across the entire receptor family [5]: no HRH activity across the entire receptor family

SMILES: CCC(C)CCCCCCCCCCCCC(=O)O (stereo not drawn) [14-methylpalmitic acid]
- EC50 (GPR151): 40 µM

SMILES: N=C(N)NCCCCN [Agmatine, agmatine, reference compound]
- agonism / activation of HRH4 (HRH4): selectively agonized HRH4 but to a lesser extent than cadaverine

SMILES: CCC(C)CCCCCCCCCCCCC(=O)O (stereo not drawn) [aiC17:0, reference compound]
- agonist activity at UTR2 [2]: minimal agonist activity
- agonist activity at NMU1R [3]: minimal agonist activity

Second part, led by results:

- agonism of DRD3 (DRD3): agonism of DRD2 and DRD3 was validated
SMILES: NCCc1ccc(O)cc1 [tyramine]
- agonism of DRD2 (DRD2): agonism of DRD2 and DRD3 was validated

- EC50 (GPR151): 49 µM
- EC50 [2, 6]: 49 µM
- EC50 ([2]; synthetic and natural compound, read-out: EC50, agonism of UTR2 (converted)): 202 µM
- EC50 ([3]; Table 1, GPCR NMU1R (Q9HB89), read-out: EC50 (μM), NMU1R): 29 µM
- agonist activity at NMU1R [3]: NMU1R-active
- EC50 ([3]; synthetic and natural compound, read-out: EC50, agonism of NMU1R (converted)): 132 µM
SMILES: CCC(C)CCCCCCCCCCC(=O)O (stereo not drawn) [12-methylmyristic acid, 12-methyltetradecanoic acid]

- EC50 (GPR151): 44 µM
SMILES: CC(C)CCCCCCCCCCCC(=O)O [13-methylmyristic acid, 13-methyltetradecanoic acid]

- EC50 (GPR109B): 208 µM
SMILES: O=C(O)C=Cc1ccc(O)cc1 [4-hydroxycinnamic acid]
